Test results taken from patent US11000033B2, “Ketone or oxime compound, and herbicide” (NISSAN CHEMICAL CORPORATION, priority 2014, dated 2021).

Experiments:
Assay type in all cases: in vivo
[1] = tested on: corn; assay: Test Example 5: effect on crop by foliage application, plastic box (symbol c); settings: 320 g/ha, 3 weeks after application
Summary of the method: (§1)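 Sterilized diluvial soil, plastic box (21 × 13 × 7 cm); spot sowing, ~1.5 cm soil cover; greenhouse 25–30° C.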

[2] = tested on: Digitaria ciliaris; assay: Test Example 5: herbicidal effect by foliage application, plastic box (symbol F); settings: 320 g/ha, 3 weeks after application
Summary of the method: (§2)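 Leaf-applied emulsion, water-diluted to a preset herbicide dose, on two-week-old seedlings raised in a 25° C. to 30° C. greenhouse; injury rated at 3 weeks using earlier criteria.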

[3] = tested on: soybean; assay: Test Example 4: effect on crop by soil treatment (symbol d); settings: for d (soybean) effect on crop grade: application herbicide amount 320 g/ha; for d: soybean, effect grade on crop: 320 g/ha
Summary of the method: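 Plants grew in a 25° C. to 30° C. greenhouse after spot-sowing of seeds, including beet, rapeseed, wheat and rice, into sterilized diluvial soil under roughly 1.5 cm of cover soil.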

[4] = tested on: Galium spurium; assay: Test Example 4: herbicidal effect by soil treatment (symbol Q); settings: for Q (Galium spurium) herbicidal effect grade: application herbicide amount 320 g/ha; for Q: Galium spurium, herbicidal effect grade: 320 g/ha
Summary of the method: (§3)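 Seeds were sown in sterilized diluvial soil, covered with about 1.5 cm of soil, and the soil surface was sprayed with a water-diluted emulsion of the compound at a predetermined rate. Plants grew in a greenhouse at 25° C. to 30° C.; effects were scored visually 3 weeks after application.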

[5] = tested on: transplanted rice plant; assay: Test Example 1: effect on crop, application before weed generation in submerged conditions (symbol a); settings: application herbicide amount 320 g/ha
Summary of the method: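 Rice at 2.5 leaf stage transplanted into submerged soil (4 cm depth) sown with three weed species; herbicide applied before weed emergence.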

[6] = tested on: Apera spica-venti; assay: Test Example 4: herbicidal effect by soil treatment (symbol L); settings: for L (Apera spica-venti) herbicidal effect grade: application herbicide amount 320 g/ha; for L: Apera spica-venti, herbicidal effect grade: 320 g/ha
Summary of the method: as §3

[7] = tested on: soybean; assay: Test Example 5: effect on crop by foliage application, plastic box (symbol d); settings: 320 g/ha, 3 weeks after application
Summary of the method: as §1

[8] = tested on: Veronica persica; assay: Test Example 5: herbicidal effect by foliage application, plastic box (symbol R); settings: 320 g/ha, 3 weeks after application
Summary of the method: as §2

[9] = tested on: directly sowed rice plant; assay: Test Example 3: effect on crop by foliage application, Wagner pot (symbol b); settings: application herbicide amount 320 g/ha
Summary of the method: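 Plants are raised from seed in flooded paddy conditions: water stands 0.1–0.5 cm over alluvial soil, and the pot is kept in a greenhouse at 25–30 °C. Species sown are barnyardgrass (E. crus-galli var. crus-galli), Leptochloa chinensis, Cyperus difformis and rice.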

[10] = tested on: Avena fatua; assay: Test Example 5: herbicidal effect by foliage application, plastic box (symbol I); settings: 320 g/ha, 3 weeks after application
Summary of the method: as §2

[11] = tested on: Abutilon theophrasti; assay: Test Example 4: herbicidal effect by soil treatment (symbol M); settings: for M (Abutilon theophrasti) herbicidal effect grade: application herbicide amount 320 g/ha; for M: Abutilon theophrasti, herbicidal effect grade: 320 g/ha
Summary of the method: as §3

[12] = tested on: Echinochloa crus-galli var. crus-galli; assay: Test Example 4: herbicidal effect by soil treatment (symbol H); settings: for H (Echinochloa crus-galli var. crus-galli) herbicidal effect grade: application herbicide amount 320 g/ha; for H: Echinochloa crus-galli var. crus-galli, herbicidal effect grade: 320 g/ha
Summary of the method: as §3

[13] = tested on: Echinochloa oryzacola Vasing.; assay: Test Example 1: herbicidal activity, application before weed generation in submerged conditions (symbol A); settings: application herbicide amount 320 g/ha
Summary of the method: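 Application before weed emergence: an aqueous dilution of the emulsion formulation was poured onto the surface of 4 cm-deep floodwater on the day of sowing. Effect was judged after 3 weeks (greenhouse, 25–30 °C).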

[14] = tested on: Chenopodium album; assay: Test Example 4: herbicidal effect by soil treatment (symbol O); settings: for O (Chenopodium album) herbicidal effect grade: application herbicide amount 320 g/ha; for O: Chenopodium album, herbicidal effect grade: 320 g/ha
Summary of the method: as §3

[15] = tested on: Abutilon theophrasti; assay: Test Example 5: herbicidal effect by foliage application, plastic box (symbol M); settings: 320 g/ha, 3 weeks after application
Summary of the method: as §2

Compound	c: corn, effect on crop grade [1]	F: Digitaria ciliaris, herbicidal effect grade [2]	d (soybean) effect on crop grade [3]	Q (Galium spurium) herbicidal effect grade [4]	Effect grade on crop, a: transplanted rice plant [5]	L (Apera spica-venti) herbicidal effect grade [6]	effect on crop b (directly sowed rice plant), grade 0-5 [9]	Herbicidal effect grade, A: Echinochloa oryzacola Vasing. [13]	c: corn, effect on crop (criteria 0-5) [1]	F: Digitaria ciliaris, herbicidal effect (criteria 0-5) [2]	d: soybean, effect grade on crop [3]	Q: Galium spurium, herbicidal effect grade [4]	L: Apera spica-venti, herbicidal effect grade [6]	d: soybean, effect on crop (criteria 0-5) [7]	R: Veronica persica, herbicidal effect (criteria 0-5) [8]	I: Avena fatua, herbicidal effect (criteria 0-5) [10]	M: Abutilon theophrasti, herbicidal effect grade [11]	H: Echinochloa crus-galli var. crus-galli, herbicidal effect grade [12]	O: Chenopodium album, herbicidal effect grade [14]	M: Abutilon theophrasti, herbicidal effect (criteria 0-5) [15]	also measured
CON=C(C)CC1CC(OC(C)=O)=C(c2c(C)cc(C)cc2C)C1=O (stereo not drawn) [1-005]	5 (Herbicidal ratio of 90% or more (almost completely withered))	5 (Herbicidal ratio of 90% or more (almost completely withered))	2 (Herbicidal ratio of 20% or higher and lower than 40%)	0 (Herbicidal ratio of 5% or lower (almost no effect))	5 (Herbicidal ratio of 90% or more (almost completely withered))	5 (Herbicidal ratio of 90% or more (almost completely withered))	5 (Herbicidal ratio of 90% or more (almost completely withered))	5 (Herbicidal ratio of 90% or more (almost completely withered))	–	–	–	–	–	–	–	–	–	–	–	–	d: soybean, effect on crop grade [7]: 4 (Herbicidal ratio of 70% or higher and lower than 90%); R: Veronica persica, herbicidal effect grade [8]: 3 (Herbicidal ratio of 40% or higher and lower than 70%); I: Avena fatua, herbicidal effect grade [10]: 5 (Herbicidal ratio of 90% or more (almost completely withered)); M (Abutilon theophrasti) herbicidal effect grade [11]: 5 (Herbicidal ratio of 90% or more (almost completely withered)); H (Echinochloa crus-galli var. crus-galli) herbicidal effect grade [12]: 5 (Herbicidal ratio of 90% or more (almost completely withered)); O (Chenopodium album) herbicidal effect grade [14]: 0 (Herbicidal ratio of 5% or lower (almost no effect)); M: Abutilon theophrasti, herbicidal effect grade [15]: 4 (Herbicidal ratio of 70% or higher and lower than 90%)
CON=C(C)CC1CC(OS(C)(=O)=O)=C(c2c(C)cc(C)cc2C)C1=O (stereo not drawn) [1-006]	3 (Herbicidal ratio of 40% or higher and lower than 70%)	5 (Herbicidal ratio of 90% or more (almost completely withered))	0 (Herbicidal ratio of 5% or lower (almost no effect))	0 (Herbicidal ratio of 5% or lower (almost no effect))	4 (Herbicidal ratio of 70% or higher and lower than 90%)	5 (Herbicidal ratio of 90% or more (almost completely withered))	5 (Herbicidal ratio of 90% or more (almost completely withered))	5 (Herbicidal ratio of 90% or more (almost completely withered))	–	–	–	–	–	–	–	–	–	–	–	–	d: soybean, effect on crop grade [7]: 4 (Herbicidal ratio of 70% or higher and lower than 90%); R: Veronica persica, herbicidal effect grade [8]: 2 (Herbicidal ratio of 20% or higher and lower than 40%); I: Avena fatua, herbicidal effect grade [10]: 5 (Herbicidal ratio of 90% or more (almost completely withered)); M (Abutilon theophrasti) herbicidal effect grade [11]: 4 (Herbicidal ratio of 70% or higher and lower than 90%); H (Echinochloa crus-galli var. crus-galli) herbicidal effect grade [12]: 5 (Herbicidal ratio of 90% or more (almost completely withered)); O (Chenopodium album) herbicidal effect grade [14]: 0 (Herbicidal ratio of 5% or lower (almost no effect)); M: Abutilon theophrasti, herbicidal effect grade [15]: 4 (Herbicidal ratio of 70% or higher and lower than 90%)
CON=C(C)CC1CC(OC(=O)c2nc(C)sc2C)=C(c2c(C)cc(C)cc2C)C1=O (stereo not drawn) [1-101]	–	–	–	–	5 (Herbicidal ratio of 90% or more (almost completely withered))	–	5 (Herbicidal ratio of 90% or more (almost completely withered))	5 (Herbicidal ratio of 90% or more (almost completely withered))	5 (Herbicidal ratio of 90% or more (almost completely withered))	5 (Herbicidal ratio of 90% or more (almost completely withered))	2 (Herbicidal ratio of 20% or higher and lower than 40%)	0 (Herbicidal ratio of 5% or lower (almost no effect))	5 (Herbicidal ratio of 90% or more (almost completely withered))	3 (Herbicidal ratio of 40% or higher and lower than 70%)	3 (Herbicidal ratio of 40% or higher and lower than 70%)	5 (Herbicidal ratio of 90% or more (almost completely withered))	5 (Herbicidal ratio of 90% or more (almost completely withered))	5 (Herbicidal ratio of 90% or more (almost completely withered))	0 (Herbicidal ratio of 5% or lower (almost no effect))	5 (Herbicidal ratio of 90% or more (almost completely withered))	–
CON=C(C)CC1CC(OC(=O)c2cnoc2C2CC2)=C(c2c(C)cc(C)cc2C)C1=O (stereo not drawn) [1-103]	–	–	–	–	5 (Herbicidal ratio of 90% or more (almost completely withered))	–	5 (Herbicidal ratio of 90% or more (almost completely withered))	5 (Herbicidal ratio of 90% or more (almost completely withered))	5 (Herbicidal ratio of 90% or more (almost completely withered))	5 (Herbicidal ratio of 90% or more (almost completely withered))	1 (Herbicidal ratio of 5% or higher and lower than 20%)	0 (Herbicidal ratio of 5% or lower (almost no effect))	4 (Herbicidal ratio of 70% or higher and lower than 90%)	3 (Herbicidal ratio of 40% or higher and lower than 70%)	3 (Herbicidal ratio of 40% or higher and lower than 70%)	5 (Herbicidal ratio of 90% or more (almost completely withered))	5 (Herbicidal ratio of 90% or more (almost completely withered))	5 (Herbicidal ratio of 90% or more (almost completely withered))	0 (Herbicidal ratio of 5% or lower (almost no effect))	4 (Herbicidal ratio of 70% or higher and lower than 90%)	–
CON=C(C)CON=C(C)CC1CC(O)=C(c2c(C)cc(C)cc2C)C1=O (stereo not drawn) [1-105]	–	–	–	–	5 (Herbicidal ratio of 90% or more (almost completely withered))	–	5 (Herbicidal ratio of 90% or more (almost completely withered))	5 (Herbicidal ratio of 90% or more (almost completely withered))	4 (Herbicidal ratio of 70% or higher and lower than 90%)	5 (Herbicidal ratio of 90% or more (almost completely withered))	0 (Herbicidal ratio of 5% or lower (almost no effect))	0 (Herbicidal ratio of 5% or lower (almost no effect))	5 (Herbicidal ratio of 90% or more (almost completely withered))	1 (Herbicidal ratio of 5% or higher and lower than 20%)	3 (Herbicidal ratio of 40% or higher and lower than 70%)	5 (Herbicidal ratio of 90% or more (almost completely withered))	1 (Herbicidal ratio of 5% or higher and lower than 20%)	5 (Herbicidal ratio of 90% or more (almost completely withered))	0 (Herbicidal ratio of 5% or lower (almost no effect))	1 (Herbicidal ratio of 5% or higher and lower than 20%)	–
